Assay results: patent publication US5861424A, “Composition and method for treating cancer” (priority 1995, dated 1999)
Read-outs that look alike come from different tables or passages of the source.

Key:
[1] = tested on: normal monkey kidney epithelial cell line CV-1; experiment: Colony formation assay, normal monkey kidney epithelial cells CV-1; conditions: for IC50: Primates, Epithelial cell; for CV-1 (IC50): Table III;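 on all read-outs here: colonies visualized by crystal violet staining, incubation at 37 °C, IC50 relative to untreated wells given culture medium alone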
[2] = tested on: human colon carcinoma cell line CX-1; experiment: Colony formation assay, human colon carcinoma CX-1; format: cell-based; conditions: for IC50: Homo sapiens, Colon carcinoma cell; for IC50 / CX-1 (IC50): 24 h treatment, colony count after 7 to 10 days; for Selectivity (ratio of IC50 for CV-1 and IC50 for CX-1): CV-1/CX-1
Experimental: Human colon carcinoma cell line CX-1 or normal monkey kidney epithelial cell line CV-1 was chosen as representatives of cancer cells and normal cells, respectively. […] CX-1 cells (2,000 cells/well) and CV-1 cells (1,000 cells/well) were plated in 24-well plastic culture plates. […] The control received culture media only. Cells were treated with compounds of General Formulas (1) to (6) at 37° C. for 24 hours. After rinsing with fresh culture medium three times, the cells were further incubated at 37° C. for 7 to 10 days. Cell colonies were fixed and stained with 2% crystal violet in 70% ethanol for 10 minutes and rinsed in water. […] The selectivity is defined as the ratio of IC50 for CV-1 and IC50 for CX-1.

[3] = read-out: CV-1 (IC50), Table III, 24 h treatment, colony count after 7 to 10 days
[4] = Table III, read-out: CX-1 (IC50)
[5] = 24 h treatment, colony count after 7 to 10 days
[6] = read-out: CX-1 (IC50), Table III

Compound | IC50 [1, 3] [µg/mL] | IC50 [2, 4] [µg/mL] | Selectivity (ratio of IC50 for CV-1 and IC50 for CX-1) ([2]; Table III) | CV-1 (IC50) [1, 5] [µg/mL] | IC50 ([1]; read-out: CV-1 (IC50)) [µg/mL] | IC50 [2, 6] [µg/mL] | CX-1 (IC50) ([2]; Table III) [µg/mL]
CCn1c(=Cc2sc3cc(C)ccc3[n+]2CC)sc(=CC=C2N(C)c3ccccc3C2(C)C)c1=O [Compound 207] | 1.5 | 0.01 | 150 |  |  |  | 
CCN1C(C)=CSC1=CC=c1sc(=Cc2sc3ccccc3[n+]2CC)n(CC)c1=O [Compound 92] |  | 0.05 | 180 | 9 |  |  | 
CCN1C(=CC=c2sc(=Cc3sc4c5ccccc5ccc4[n+]3CC)n(CC)c2=O)C=Cc2cc(C)ccc21 [Compound 254] |  |  | 100 |  | 10 | 0.1 | 
CCN1C(=CC=c2sc(=Cc3cc[n+](CC)c4ccccc34)n(CC)c2=O)C=Cc2cc(Cl)ccc21 [Compound 396] |  |  | 250 |  |  |  | 0.08
CCN1CCSC1=CC=c1sc(=Cc2oc3cc(Cl)c(Cl)cc3[n+]2CC)n(CC)c1=O [Compound 391] |  | 0.07 | 114 |  | 8 |  | 
CCN1CCSC1=CC=c1sc(=Cc2sc3cccc(OC)c3[n+]2CC)n(CC)c1=O [Compound 154] | 5 | 0.04 | 125 |  |  |  | 
CCN1C(=CC=c2sc(=Cc3oc4ccc5ccccc5c4[n+]3CC)n(CC)c2=O)Sc2ccc3ccccc3c21 [Compound 70] |  | 0.04 | 250 |  | 10 |  | 
CCN1C(=CC=c2sc(=Cc3cc[n+](CC)c4ccccc34)n(CC)c2=O)C=Cc2cc(Cl)ccc21 [Compound 395] | 20 |  | 100 |  |  |  | 0.2
CCN1CCSC1=CC=c1sc(=Cc2sc3c4ccccc4ccc3[n+]2CC)n(CC)c1=O [Compound 138] |  | 0.005 | 160 | 0.8 |  |  | 
CCN1C(=CC=c2sc(=Cc3sc4c5ccccc5ccc4[n+]3CC)n(CC)c2=O)C(C)(C)c2cc(Cl)ccc21 [Compound 220] | 5 | 0.04 | 125 |  |  |  | 
CCN1C=C(C)C=CC1=CC=c1sc(=Cc2sc3cc(C)c(C)cc3[n+]2CC)n(CC)c1=O [Compound 397] | 20 | 0.05 | 400 |  |  |  | 
CCN1CCSC1=CC=c1sc(=Cc2oc3ccc4ccccc4c3[n+]2CC)n(CC)c1=O [Compound 143] | 5 | 0.05 | 100 |  |  |  | 
CCN1C(=CC=c2sc(=Cc3sc4c5ccccc5ccc4[n+]3CC)n(-c3ccccc3)c2=O)Sc2ccc3ccccc3c21 [Compound 68] | 5 |  | 100 |  |  |  | 
CCN1C(=CC=c2sc(=Cc3sc4ccc5ccccc5c4[n+]3CC)n(CC)c2=O)Sc2ccc3ccccc3c21 [Compound 30] | 5 | 0.025 |  |  |  |  | 
CCOc1ccc2c(c1)C=CC(=CC=c1sc(=Cc3sc4c5ccccc5ccc4[n+]3CC)n(CC)c1=O)N2CC [Compound 252] | > 20 |  | > 200 |  |  | 0.1 | 
CCN1CCSC1=CC=c1sc(=Cc2[se]c3ccccc3[n+]2CC)n(CC)c1=O [Compound 157] |  |  | 100 |  | 8 | 0.08 | 
CCN1C(C)=CSC1=CC=c1sc(=Cc2oc3cc(C)c(C)cc3[n+]2CC)n(CC)c1=O [Compound 388] |  |  | 261 |  | 8 | 0.03 | 
CCN1C(=CC=c2sc(=Cc3sc4c5ccccc5ccc4[n+]3CC)n(CC)c2=O)C=Cc2cc(Cl)ccc21 [Compound 253] | > 20 | 0.04 | > 500 |  |  |  | 
CCN1C(C)=CSC1=CC=c1sc(=C2CCC[n+]3c2sc2ccccc23)n(CC)c1=O [Compound 389] | 15 |  | 188 |  |  |  | 0.08
CCN1C=CC=CC1=CC=c1sc(=Cc2sc3ccc4ccccc4c3[n+]2CC)n(CC)c1=O [Compound 398] | 16 | 0.04 | 400 |  |  |  | 

Compound | IC50 [1, 3] [µg/mL] | IC50 [2, 4] [µg/mL] | Selectivity (ratio of IC50 for CV-1 and IC50 for CX-1) ([2]; Table III) | CV-1 (IC50) [1, 5] [µg/mL] | IC50 ([1]; read-out: CV-1 (IC50)) [µg/mL] | IC50 [2, 6] [µg/mL] | CX-1 (IC50) ([2]; Table III) [µg/mL]
CCN1C(=CC=c2sc(=Cc3[se]c4ccccc4[n+]3CC)n(CC)c2=O)Sc2ccc3ccccc3c21 [Compound 74] |  |  | 100 |  | 10 | 0.1 | 
CCN1C(=CC=c2sc(=Cc3sc4ccc5ccccc5c4[n+]3CC)n(CC)c2=O)Sc2c1ccc1ccccc21 [Compound 20] | 6 |  | 200 |  |  | 0.03 | 
CCCCC[n+]1c(C=c2sc(=CC=C3SC=C(C)N3CC)c(=O)n2CC)sc2cc(OC)c(OC)cc21 [Compound 399] |  |  | 100 |  | 10 | 0.1 | 
CCN1CCSC1=CC=c1sc(=Cc2sc3cc(OC)c(OC)cc3[n+]2CC)n(CC)c1=O [Compound 134] |  |  | 100 |  | 10 | 0.1 | 
CCN1C(=CC=c2sc(=CC3=[N+](CC)CCS3)n(CC)c2=O)C=Cc2ccccc21 [Compound 394] |  |  | 125 |  | 10 | 0.08 | 
CCN1CCSC1=CC=c1sc(=Cc2oc3c4ccccc4ccc3[n+]2CC)n(CC)c1=O [Compound 390] | 20 |  | 250 |  |  | 0.08 | 
CCN1CCSC1=CC=c1sc(=CC2=[N+](CC)CCS2)n(CC)c1=O [Compound 142] | 20 |  | 200 |  |  | 0.1 | 
CCN1C=CC(=CC=c2sc(=Cc3sc4ccc5ccccc5c4[n+]3CC)n(CC)c2=O)c2ccccc21 [Compound 307] | 3 | 0.02 | 150 |  |  |  | 
CCN1C(=CC=c2sc(=CC3=[N+](CC)CCS3)n(CC)c2=O)C=Cc2ccccc21 [Compound 400] | > 20 |  | > 250 |  |  |  | 
CCN1CCSC1=CC=c1sc(=Cc2sc3ccccc3[n+]2CC)n(CC)c1=O [Compound 137] | 5 | 0.05 | 100 |  |  |  | 
CCN1C=CC(=CC=c2sc(=Cc3sc4ccccc4[n+]3CC)n(CC)c2=O)C=C1 [Compound 317] | 20 |  | 100 |  |  | 0.2 | 
CCn1c(=Cc2cccc[n+]2CC)sc(=CC=C2Sc3ccc4ccccc4c3N2C)c1=O [Compound 385] | 20 |  | 100 |  |  | 0.2 | 
CCN1C(=CC=c2sc(=Cc3sc4c5ccccc5ccc4[n+]3CC)n(CC)c2=O)Sc2c1ccc1ccccc21 [Compound 7] | 4 | 0.04 | 100 |  |  |  | 
CCN1CCSC1=CC=c1sc(=Cc2sc3c4ccccc4ccc3[n+]2CC)n(CC)c1=O [Compound 151] |  |  | 250 | 20 |  |  | 0.08
CCn1c(=Cc2sc3cc(Cl)c(Cl)cc3[n+]2CC)sc(=CC=C2Sc3ccc4ccccc4c3N2C)c1=O [Compound 383] | 20 |  | 200 |  |  | 0.1 | 
CCN1C(=CC=c2sc(=Cc3sc4c5ccccc5ccc4[n+]3CC)n(CCOC(C)=O)c2=O)Sc2ccc3ccccc3c21 [Compound 67] |  | 0.05 | 200 |  | 10 |  | 
CCN1C(C)=CSC1=CC=c1sc(=C2CCC[n+]3c2sc2ccccc23)n(CC)c1=O [Compound 386] |  |  | 100 |  | 10 | 0.1 | 
CCN1C(=CC=c2sc(=Cc3cc[n+](CC)c4ccccc34)n(CC)c2=O)C=Cc2ccccc21 [Compound 392] |  |  | 286 | 20 |  |  | 0.01
CCN1C(=CC=c2sc(=Cc3cc[n+](CC)c4ccccc34)n(CC)c2=O)C=Cc2ccccc21 [Compound 393] |  |  | 400 | 20 |  |  | 0.05
